Source: patent US7482032B2, “Carotenoid preparation” (I.B.R. Israeli Biotechnology Research, Ltd., priority 1998, dated 2009)

What was measured:
[1] = UV absorbance spectra (spectrophotometric analysis); type: physicochemical; details: extract from Dunaliella sp.
Experimental: Absorption spectra of the phytoene and phytofluene extract was determined using Hewlett Packard 8452A Diode Array Spectrophotometer.
As expected, the main absorbance peak for β-carotene was at 450 nm. β-Carotene was reduced due to the synthesis inhibition while phytoene and phytofluene increased.

[2] = Stability under visible light (filtered sunlight, aerobic); type: physicochemical
Experimental: Stability of phytoene and phytofluene under visible light was measured under sunlight (full sun summer day in Rehovot, Israel, at noon) filtered through “hot mirror” (Andover Corporation, Salem, N.H., transmittance 400-650 nm) filter. Samples were dissolved in ethanol, exposed to light for 30-150 min and then extracted in hexane after basic hydrolysis (as in extraction method above). Phytoene, phytofluene and beta-carotene amounts were measured spectrophotometrically, and percentage lefts were calculated as in section 5 above.
Stability of phytoene and phytofluene was compared to that of beta-carotene stability (as explained in materials and methods) under visible light. The absorbance of the preparation is determined in 220-600 nm wavelength and the amount of each of the above carotenoids in each sample is calculated to determine the percent of the carotenoids measured after irradation of the extract compared to measurements prior to irradiant (see example 2 above).

[3] = Stability of phytoene and phytofluene under UV irradiation (aerobic); type: physicochemical
Experimental: 6. Stability of Phytoene and Phytofluene Under Aerobic Conditions in UV Lights and Various Incubation Temperatures
Stability of the carotenoids in the various temperatures was determined by long-term incubation of phytoene and phytofluene in several types of oils and solvents at 4° C., 23° C., 30° C. and 60° C. The amount of phytoene and phytofluene left was determined spectrophotometrically. The percent of phytoene and phytofluene left was calculated as follows:
[formula] Stability under UV lights (254 nm, 365 nm, 254+365 nm), for 30 mins. at 300/310 μw/cm^2 was determined. 7. Stability of Phytoene and Phytofluene Under Aerobic Conditions in Visible Light
The stability of the phytoene and phytofluene extracts obtained as explained in Example 1 above was determined by spectrophotometric analysis. Phytoene and phytofluene were dissolved in hexane or oil. The absorbance of the preparation is determined in 220-600 nm and the amount of each of the above carotenoids in each sample is calculated to determine the percent of the carotenoids measured after irradiation of the extract divided by the amount of the same carotenoid which was measured in the extract before exposing it to irradiation (see Materials and Methods 5 above). The stability of the phytoene and phytofluene was measured by the exposure of the extract both to UVA light (365 nm) and UVB light (254 nm) irradiation as well as to a combination of UVA and UVB irradiation.

[4] = Stability of phytoene and phytofluene at various incubation temperatures in oils and solvents; type: physicochemical; details: 4° C., 23° C., 30° C. and 60° C., hexane or oils, four months
Experimental: Stability of the carotenoids in the various temperatures was determined by long-term incubation of phytoene and phytofluene in several types of oils and solvents at 4° C., 23° C., 30° C. and 60° C. The amount of phytoene and phytofluene left was determined spectrophotometrically. The percent of phytoene and phytofluene left was calculated as follows: […]
The stability of phytoene and phytofluene under different temperature conditions (4° C., 23° C., 30° C. and 60° C.) in hexane or in other various commercially used oils was also measured.
The measurements were carried out over a period of four months.

[5] = test system: DNA repair synthesis activity; assay: Genotoxic effect: induction of DNA repair synthesis activity (ratio R); type: biochemical; details: R≦2 no toxic effect
Experimental: The genotoxicity is measured as the induction of DNA repair synthesis activity and is expressed by the ratio (R): while R≦2 indicate no toxic effect

[6] = 254 nm + 365 nm, 30 minutes exposure, in hexane
[7] = 254 nm + 365 nm, 30 minutes exposure, in oil
[8] = 254 nm, 30 minutes exposure, in hexane
[9] = 254 nm, 30 minutes exposure, in oil
[10] = 365 nm, 30 minutes exposure, in hexane
[11] = 365 nm, 30 minutes exposure, in oil
[12] = Darkness, 30 minutes, in hexane

| SMILES | main absorbance peak [1] [nm] | % left ([2]; time of exposure 0 min) [%] | % left ([2]; time of exposure 30 min) [%] | % left ([2]; time of exposure 90 min) [%] | % left ([2]; time of exposure 120 min) [%] | % left ([2]; time of exposure 150 min) [%] | PH and PF (% left) [3, 6] [%] | PH and PF (% left) [3, 7] [%] | PH and PF (% left) [3, 8] [%] | PH and PF (% left) [3, 9] [%] | PH and PF (% left) [3, 10] [%] | PH and PF (% left) [3, 11] [%] | PH and PF (% left) [3, 12] [%] | PH and PF (% left) ([3]; Darkness, 30 minutes, in oil) [%] | Stability under different temperature conditions [4] | Genotoxicity (Ratio) ([5]; concentration 2 mM) | Genotoxicity (Ratio) ([5]; concentration 10 mM) |
| --- | --- | --- | --- | --- | --- | --- | --- | --- | --- | --- | --- | --- | --- | --- | --- | --- | --- |
| CC(C)=CCC/C(C)=C/CC/C(C)=C/CC/C(C)=C/C=C/C=C(\C)CC/C=C(\C)CC/C=C(\C)CCC=C(C)C [Phytoene, 7,8, 11, 12, 7′, 8′, 11′, 12′-octahydro-γ,γ-carotene] | 286 | 100 | 54.46 | 20.33 | 15.70 | 13.64 | 92.4 | 101 | 92.2 | 100 | 98.7 | 100 | 100 | 100 | stable in the entire measured temperature range | – | – |
| CC(C)=CCC/C(C)=C/CC/C(C)=C/C=C/C(C)=C/C=C/C=C(\C)CC/C=C(\C)CC/C=C(\C)CCC=C(C)C [Phytofluene, 15Z, 7,8, 11, 12, 7′, 8′-hexahydro-γ,γ-carotene] | 348 | 100 | 66.13 | 50.42 | 41.33 | 33.06 | 99.0 | 98 | 92.6 | 90 | 101.5 | 88 | 100 | 100 | stable in the entire measured temperature range | – | – |
| CC1=C(/C=C/C(C)=C/C=C/C(C)=C/C=C/C=C(C)/C=C/C=C(C)/C=C/C2=C(C)CCCC2(C)C)C(C)(C)CCC1 [Beta-carotene, reference compound] | 450 | 100 | 25.00 | 11.36 | 9.47 | 5.68 | – | – | – | – | – | – | – | – | – | – | – |
| COS(C)(=O)=O [MMS] | – | – | – | – | – | – | – | – | – | – | – | – | – | – | – | 2.44 | 6.26 |
